Reference: patent US9115092B2, “Substituted quinazoline and pyrido-pyrimidine derivatives” (Asana Biosciences, LLC, priority 2010, dated 2015)

What was measured:
[1] = target: T1, mTOR kinase (Homo sapiens, UniProt P42345); experiment: mTOR kinase TR-FRET assay; assay type: biochemical; settings: read-out: mTO R
T1 construct: purchased Millipore, USA
Summary of the method: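 Compounds preincubated 60 min with mTOR (5 ng) in HEPES pH 7.5, EGTA, MnCl2; ULight-p70 S6K Thr389 peptide (50 nM) and ATP (20 μM) then added, 60 min at room temperature. EDTA-stopped, Eu-anti-phospho antibody detection by TR-FRET (665/615 nm); IC50 from variable-slope sigmoidal fit.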

[2] = target: T2, PI3Kα (wild-type), P110/P85α (Homo sapiens, UniProt P42336); experiment: PI3 Kinase TR-FRET assay, PI3Kα (wild-type); assay type: biochemical
T2 construct: made in house; host or cells: SF9 insect cells
Summary of the method: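 Sf9-expressed His-purified P110/P85α (5 ng) preincubated 60 min RT with compound and PIP2 in buffer with 40 mM MgCl2, 5 mM DTT; reaction started with ATP (PIP2 and ATP both 10 μM), 30 min RT. PIP3 detected by TR-FRET displacement, 665/615 nm ratio; IC50 from dose-response curves.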

T2 sequence (P42336 whole entry): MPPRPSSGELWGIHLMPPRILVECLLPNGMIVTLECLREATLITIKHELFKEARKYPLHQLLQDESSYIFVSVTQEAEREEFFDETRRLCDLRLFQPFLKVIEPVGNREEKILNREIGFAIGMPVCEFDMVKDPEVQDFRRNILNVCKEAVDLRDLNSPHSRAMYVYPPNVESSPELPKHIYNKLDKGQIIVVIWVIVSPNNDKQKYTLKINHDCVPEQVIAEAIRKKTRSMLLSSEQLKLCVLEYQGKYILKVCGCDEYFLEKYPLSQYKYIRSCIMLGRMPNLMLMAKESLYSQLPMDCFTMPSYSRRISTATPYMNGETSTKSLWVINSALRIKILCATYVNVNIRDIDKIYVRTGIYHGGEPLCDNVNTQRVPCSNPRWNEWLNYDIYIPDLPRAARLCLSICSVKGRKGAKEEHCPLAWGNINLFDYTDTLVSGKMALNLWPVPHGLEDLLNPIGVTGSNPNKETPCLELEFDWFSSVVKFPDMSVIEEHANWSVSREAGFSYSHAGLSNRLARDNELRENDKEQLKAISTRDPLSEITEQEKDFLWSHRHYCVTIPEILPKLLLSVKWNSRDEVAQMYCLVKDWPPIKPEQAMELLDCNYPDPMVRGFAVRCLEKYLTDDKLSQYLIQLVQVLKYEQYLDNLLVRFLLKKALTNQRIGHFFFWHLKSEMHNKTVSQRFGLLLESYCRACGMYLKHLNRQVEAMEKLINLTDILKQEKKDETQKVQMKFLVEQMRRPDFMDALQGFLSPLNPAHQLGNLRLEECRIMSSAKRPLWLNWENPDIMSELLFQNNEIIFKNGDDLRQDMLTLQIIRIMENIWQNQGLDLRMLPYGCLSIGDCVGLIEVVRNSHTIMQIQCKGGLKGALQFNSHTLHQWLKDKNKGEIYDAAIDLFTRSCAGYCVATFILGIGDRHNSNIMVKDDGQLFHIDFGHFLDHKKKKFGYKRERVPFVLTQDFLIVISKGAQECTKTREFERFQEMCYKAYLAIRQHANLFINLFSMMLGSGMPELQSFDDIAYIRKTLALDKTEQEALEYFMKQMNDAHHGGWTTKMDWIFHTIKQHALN
T2 sequence (P27986 whole entry partner): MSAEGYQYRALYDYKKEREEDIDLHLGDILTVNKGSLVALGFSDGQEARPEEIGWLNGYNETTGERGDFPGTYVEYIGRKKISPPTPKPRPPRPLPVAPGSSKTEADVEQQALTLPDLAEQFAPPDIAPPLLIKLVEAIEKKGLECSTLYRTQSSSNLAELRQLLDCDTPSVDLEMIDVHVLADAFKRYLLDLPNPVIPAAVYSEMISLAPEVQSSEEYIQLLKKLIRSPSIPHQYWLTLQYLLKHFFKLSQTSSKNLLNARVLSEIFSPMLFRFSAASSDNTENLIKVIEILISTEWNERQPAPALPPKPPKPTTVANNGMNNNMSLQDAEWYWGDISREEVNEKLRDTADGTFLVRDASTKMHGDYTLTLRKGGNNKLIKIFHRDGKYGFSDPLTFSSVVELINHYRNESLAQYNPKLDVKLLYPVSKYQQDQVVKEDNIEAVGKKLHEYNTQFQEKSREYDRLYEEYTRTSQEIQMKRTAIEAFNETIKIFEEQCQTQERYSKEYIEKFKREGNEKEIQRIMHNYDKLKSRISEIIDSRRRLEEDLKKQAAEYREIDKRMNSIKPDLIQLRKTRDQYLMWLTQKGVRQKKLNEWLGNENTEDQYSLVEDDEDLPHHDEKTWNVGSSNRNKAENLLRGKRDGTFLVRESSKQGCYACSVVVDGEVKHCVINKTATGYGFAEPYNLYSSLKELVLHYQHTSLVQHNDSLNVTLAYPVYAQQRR

| SMILES | IC50 [1] [nM] | IC50 [2] [nM] |
| --- | --- | --- |
| Cc1noc(C)c1-c1ccc2c(N3CCOCC3)nc(-c3ccc(NC(=O)Nc4ccc(C(=O)N(C)C)cc4)cc3F)nc2c1 [Example 252, 4-(3-(4-(7-(3,5-dimethylisoxazol-4-yl)-4-morpholino-quinazolin-2-yl)-3-fluorophenyl)ureido)-N,N-dimethyl-benzamide] | 50 to 200 | 50 to 200 |
| CC1CN(c2nc(-c3ccc(NC(=O)Nc4ccc(C(=O)N(C)C)cc4)cc3F)nc3cc(-c4cncnc4)ccc23)CCO1 (stereo not drawn) [Example 254, 4-(3-(3-fluoro-4-(4-(2-methylmorpholino)-7-(pyrimidin-5-yl)quinazolin-2-yl)phenyl)ureido)-N,N-dimethyl-benzamide] | 50 to 200 | 201 to 10000 |
| COc1ccc(-c2ccc3c(N4CCOCC4)nc(-c4ccc(NC(=O)Nc5ccc(C(=O)N(C)C)cc5)cc4F)nc3c2)cn1 [Example 258, 4-(3-(3-fluoro-4-(7-(6-methoxypyridin-3-yl)-4-morpholino-quinazolin-2-yl)phenyl)ureido)-N,N-dimethyl-benzamide] | 50 to 200 | 50 to 200 |
| CN(C)C(=O)c1ccc(NC(=O)Nc2ccc(-c3nc(N4CCOCC4)c4ncc(-c5cccnc5)cc4n3)c(F)c2)cc1 [Example 261, 4-(3-(3-fluoro-4-(4-morpholino-7-(pyridin-3-yl)pyrido[3,2-d]pyrimidin-2-yl)phenyl)ureido)-N,N-dimethyl-benzamide] | < 50 | < 50 |
| CN(C)C(=O)c1ccc(NC(=O)Nc2ccc(-c3nc(N4CCOCC4)c4ncc(-c5cncnc5)cc4n3)cc2)cc1F [Example 262, 2-fluoro-N,N-dimethyl-4-(3-(4-(4-morpholino-7-(pyrimidin-5-yl)pyrido[3,2-d]pyrimidin-2-yl)phenyl)ureido)-benzamide] | < 50 | < 50 |
| COc1ncc(-c2cnc3c(N4CCOCC4)nc(-c4ccc(NC(=O)Nc5ccc(C(=O)N(C)C)cc5)cc4F)nc3c2)cn1 [Example 263, 4-(3-(3-fluoro-4-(7-(2-methoxypyrimidin-5-yl)-4-morpholino-pyrido[3,2-d]pyrimidin-2-yl)phenyl)ureido)-N,N-dimethyl-benzamide] | < 50 | < 50 |
| CN(C)C(=O)c1ccc(NC(=O)Nc2ccc(-c3nc(N4CCOCC4)c4ncc(-c5cccnc5)cc4n3)cc2)cc1F [Example 264, 2-fluoro-N,N-dimethyl-4-(3-(4-(4-morpholino-7-(pyridin-3-yl)pyrido[3,2-d]pyrimidin-2-yl)phenyl)ureido)-benzamide] | < 50 | < 50 |
| Cc1ccc(-c2ccc3c(N4CCOCC4)nc(-c4ccc(NC(=O)Nc5ccc(C(=O)N(C)C)c(F)c5)cc4)nc3c2)o1 [Example 266, 2-fluoro-N,N-dimethyl-4-(3-(4-(7-(5-methylfuran-2-yl)-4-morpholino-quinazolin-2-yl)phenyl)ureido)-benzamide] | 50 to 200 | 50 to 200 |
| Cc1nn(C)c(C)c1-c1ccc2c(N3CCOCC3)nc(-c3ccc(NC(=O)Nc4ccc(C(=O)N(C)C)cc4)cc3F)nc2c1 [Example 269, 4-(3-(3-fluoro-4-(4-morpholino-7-(1,3,5-trimethyl-1H-pyrazol-4-yl)quinazolin-2-yl)phenyl)ureido)-N,N-dimethyl-benzamide] | < 50 | < 50 |
| COc1ncccc1-c1ccc2c(N3CCOCC3)nc(-c3ccc(NC(=O)Nc4ccc(C(=O)N(C)C)cc4)cc3F)nc2c1 [Example 270, 4-(3-(3-fluoro-4-(7-(2-methoxypyridin-3-yl)-4-morpholino-quinazolin-2-yl)phenyl)ureido)-N,N-dimethyl-benzamide] | 50 to 200 | 50 to 200 |
| Cc1ccc(-c2ccc3c(N4CCOCC4)nc(-c4ccc(NC(=O)Nc5ccc(C(=O)N(C)C)cc5)cc4F)nc3c2)cn1 [Example 271, 4-(3-(3-fluoro-4-(7-(6-methylpyridin-3-yl)-4-morpholino-quinazolin-2-yl)phenyl)ureido)-N,N-dimethyl-benzamide] | < 50 | < 50 |
| Cc1ncccc1-c1ccc2c(N3CCOCC3)nc(-c3ccc(NC(=O)Nc4ccc(C(=O)N(C)C)cc4)cc3F)nc2c1 [Example 272, 4-(3-(3-fluoro-4-(7-(2-methylpyridin-3-yl)-4-morpholino-quinazolin-2-yl)phenyl)ureido)-N,N-dimethyl-benzamide] | 50 to 200 | < 50 |
| CN(C)C(=O)c1ccc(NC(=O)Nc2ccc(-c3nc(N4CCOCC4)c4ncc(-c5cnn(C)c5)cc4n3)cc2)cc1F [Example 273, 2-fluoro-N,N-dimethyl-4-(3-(4-(7-(1-methyl-1H-pyrazol-4-yl)-4-morpholino-pyrido[3,2-d]pyrimidin-2-yl)phenyl)ureido)-benzamide] | < 50 | < 50 |
| CN(C)C(=O)c1ccc(NC(=O)Nc2ccc(-c3nc(N4CCOCC4)c4ccc(-c5ccc(C(C)(C)O)o5)cc4n3)c(F)c2)cc1 [Example 276, 4-(3-(3-fluoro-4-(7-(5-(2-hydroxypropan-2-yl)furan-2-yl)-4-morpholino-quinazolin-2-yl)phenyl)ureido)-N,N-dimethyl-benzamide] | 50 to 200 | 50 to 200 |
| CN(C)C(=O)c1ccc(NC(=O)Nc2ccc(-c3nc(N4CCOCC4)c4ccc(-c5cnc(N(C)C)nc5)cc4n3)c(F)c2)cc1 [Example 277, 4-(3-(4-(7-(2-(dimethylamino)pyrimidin-5-yl)-4-morpholino-quinazolin-2-yl)-3-fluorophenyl)ureido)-N,N-dimethyl-benzamide] | < 50 | < 50 |
| CN(C)C(=O)c1ccc(NC(=O)Nc2ccc(-c3nc(N4CCOCC4)c4ccc(-c5ccc(CO)o5)cc4n3)cc2)cc1F [Example 278, 2-fluoro-4-(3-(4-(7-(5-(hydroxymethyl)furan-2-yl)-4-morpholino-quinazolin-2-yl)phenyl)ureido)-N,N-dimethyl-benzamide] | < 50 | < 50 |
| CN(C)C(=O)c1ccc(NC(=O)Nc2cc(F)c(-c3nc(N4CCOCC4)c4ccc(-c5cncnc5)cc4n3)cc2F)cc1 [Example 279, 4-(3-(2,5-difluoro-4-(4-morpholino-7-(pyrimidin-5-yl)quinazolin-2-yl)phenyl)ureido)-N,N-dimethyl-benzamide] | 50 to 200 | 50 to 200 |
| Cc1ccc(-c2ccc3c(N4CCOCC4)nc(-c4ccc(NC(=O)Nc5ccc(C(=O)N(C)C)cc5)c(F)c4F)nc3c2)o1 [Example 281, 4-(3-(2,3-difluoro-4-(7-(5-methylfuran-2-yl)-4-morpholino-quinazolin-2-yl)phenyl)ureido)-N,N-dimethyl-benzamide] | 201 to 10000 | 201 to 10000 |
| CN(C)C(=O)c1ccc(NC(=O)Nc2ccc(-c3nc(N4CCOCC4)c4ccc(CN5CCC(O)CC5)cc4n3)cc2)cc1 [Example 284, 4-(3-(4-(7-((4-hydroxypiperidin-1-yl)methyl)-4-morpholino-quinazolin-2-yl)phenyl)ureido)-N,N-dimethyl-benzamide] | 50 to 200 | 201 to 10000 |
| CN(C)C(=O)c1ccc(NC(=O)Nc2ccc(-c3nc(N4CCOCC4)c4ccc(C(=O)N5CCC(N(C)C)CC5)cc4n3)cc2)cc1 [Example 287, 4-(3-(4-(7-(4-(dimethylamino)piperidine-1-carbonyl)-4-morpholino-quinazolin-2-yl)phenyl)ureido)-N,N-dimethyl-benzamide] | 201 to 10000 | 201 to 10000 |
| CN(C)[C@@H]1CCN(C(=O)c2ccc(NC(=O)Nc3ccc(-c4nc(N5CCOCC5)c5ccc(C(C)(C)O)cc5n4)cc3)cc2)C1 [Example 288, (R)-1-(4-(3-(dimethylamino)pyrrolidine-1-carbonyl)phenyl)-3-(4-(7-(2-hydroxypropan-2-yl)-4-morpholino-quinazolin-2-yl)phenyl)urea] | < 50 | 50 to 200 |
| CN(C)C(=O)c1ccc(NC(=O)Nc2ccc(-c3nc(N4CCOCC4)c4ccc(C(C)(C)O)cc4n3)cc2F)cc1 [Example 290, 4-(3-(2-fluoro-4-(7-(2-hydroxypropan-2-yl)-4-morpholino-quinazolin-2-yl)phenyl)ureido)-N,N-dimethyl-benzamide] | < 50 | 50 to 200 |
| CC(=O)Nc1ccc(NC(=O)Nc2ccc(-c3nc(N4CCOCC4)c4ncc(-c5cccnc5F)cc4n3)cc2)cc1 [Example 293, N-(4-(3-(4-(7-(2-fluoropyridin-3-yl)-4-morpholinopyrido[3,2-d]pyrimidin-2-yl)phenyl)ureido)phenyl) acetamide] | < 50 | < 50 |
| CC(=O)Nc1ccc(NC(=O)Nc2ccc(-c3nc(N4CCOCC4)c4ncc(-c5cnn(C)c5)cc4n3)cc2)cc1 [Example 294, N-(4-(3-(4-(7-(1-methyl-1H-pyrazol-4-yl)-4-morpholinopyrido[3,2-d]pyrimidin-2-yl)phenyl)ureido)phenyl) acetamide] | < 50 | < 50 |
